Laboratory results: US20060276549A1, “Combination and use of drugs” (priority 2005, published 2006)
Where two headings read alike, the source gives them in different places.

Tests used:
Zucker fa/fa rats = test: Rat model of snacking behavior with isobologram analysis; type: in vivo; conditions: for ED50: Rattus norvegicus, read-out: ED50 for reduction of snack intake (50% reduction in Snack Consumption); for effect on snack intake / snacking: oral dosing before snack
Experimental: Non-fasted male Zucker fa/fa −/− rats (450 gr) were habituated for 3 weeks to a twice weekly, 3 hour exposure to 60% fat diet (RDI #12492) achieving an average snack intake of 12 to 16 g. Compounds or vehicle (1% Tween 80/water) were dosed orally, 1 ml/kg, n=12-15/group, 1 hour before exclusive presentation of the snack. Snack intake and subsequent 21-hour intake of standard chow (Purina 5008) were measured. […] It is unclear from these individual studies, however, if combination treatment would result in an even greater effect on snacking behavior as reflected in a shift of the ED50 to lower doses. Therefore, an isobologram analysis was performed as described in Example 6
Dose response curves for sibutramine hydrochloride monohydrate and rimonabant hydrochloride were generated in the rat snacking model and ED50 and 95% confidence limits derived from the linear part of the curve by linear regression. Two combination studies in snacking (n=12 rats/group) were performed; the first with a fixed dose of sibutramine HCl (5 mg base/kg) co-administered with rimonabant at 1, 2.5, and 5 mg base/kg, and the second with rimonabant fixed at 4 mg base/kg with sibutramine at 2, 4, and 8 mg base/kg, plus vehicle control. ED50 values were derived from the combination studies and plotted on the isobologram. The ED50 is the dose where there is a 50% reduction in Snack Consumption. […] The rimonabant hydrochloride ED50 is 8 mg/kg.

[1] = tested on: Diet-induced Obese (DIO) Mice; test: Prevention of body weight re-gain in DIO mice; type: in vivo, C57BL/6J mice; conditions: DIO mice re-introduced to high fat food; qd dosing, day 0-7; vs HF, LF, to HF control
Experimental: C57BL/6J mice (age 5-6 weeks) were obtained from Jackson Labs (Bar Harbor, Me.) and housed in groups of 5 under conditions of 12 hours lights on, 12 hours lights off (on at 04:00 h), with food and water available ad libitum. At the beginning of the study, mice were administered a purified low fat diet (D12450Bi, 10 kcal % fat, 3.8 kcal/g) or a high fat content diet (D12492i, 60 kcal % fat, 5.2 kcal/g), both obtained from Research Diets Inc. (New Brunswick, N.J.) for approximately 16 weeks. The fat content of these diets was a mixture of lard and soybean oil. Groups of mice that had been on the high fat diet were switched back to the low fat diet for approximately 4 weeks prior to their being re-introduced to either the high fat food (weight re-gain) or maintained on low fat food. Approximately 5 days prior to the onset of dosing study (Day -5), mice were acclimated to handling and conditioned to oral gavage and daily vehicle administration by daily oral treatment at 15:00 h with Tween-80 (Sigma Chemical, St. Louis, Mo.) 1% vehicle in water (VN). All doses were given in 4 ml/kg body weight volume of vehicle. At the start of drug treatment, mice were dosed qd at 15:00 hr each day for 7 days, and body weights and food intake were evaluated.

[2] = tested on: Diet-induced Obese (DIO) Mice; test: Body weight loss in diet-induced obese (DIO) mice; type: in vivo, C57BL/6J mice; conditions: for body weight loss at day 14: p.o. q.d., sibutramine 15 mg/kg, rimonabant 3 mg/kg base
Experimental: C57BL/6J mice (age 5-6 weeks) were obtained from Jackson Labs (Bar Harbor, Me.) and housed in groups of 5 under conditions of 12 hours lights on, 12 hours lights off (on at 04:00 h), with food and water available ad libitum. At the beginning of the study, mice were administered a purified low fat diet (D12450Bi, 10 kcal % fat, 3.8 kcal/g) or a high fat content diet (D12492i, 60 kcal % fat, 5.2 kcal/g), both obtained from Research Diets Inc. (New Brunswick, N.J.) for approximately 16 weeks. The fat content of these diets was a mixture of lard and soybean oil.
(§1) Mice were individually housed for study two weeks prior to start of treatment. Mice were weighed one week later (experiment day -7), and conditioned to oral gavage and daily vehicle administration by daily oral treatment at 15:00 h with Tween-80 (Sigma Chemical, St. Louis, Mo.) 1% vehicle in water (V/V). All doses were given in 4 ml/kg body weight volume of vehicle. All compound doses are expressed as base equivalent weights per unit body weight. Mice were reweighed on day -1 to ensure that weight loss plateaued and was not progressive. Mice were stratified into groups of equal mean body weight, with n=20 mice per group. On days 0 to 28, mice were dosed by oral gavage at 15:00 h (q.d.). Sibutramine hydrochloride monohydrate and rimonabant hydrochloride were administered p.o. by gavage for 27 to 28 days at 15:00 h, at doses of 15 mg/kg and 3 mg/kg base, respectively, once a day (q.d.). Compounds were formulated in Tween-80 vehicle. For combination treatment, the individual compound formulations were mixed together immediately prior to dosing, and given as a single gavage. Food and body weights were determined on days 0 prior to treatment, and on days 1, 4, 7, 11, 14, 18, 21, 25, 27 and 28. Ten mice per group were fasted overnight on day 27. […] Plasma was analysed for insulin, leptin, free fatty acids, triglycerides, total cholesterol, HDLc and LDLc. […]

DIO mice = test: DEXA analysis of body composition in DIO mice; type: in vivo; conditions: Day 28
Experimental: as §1

[3] = cited from earlier work

| SMILES | ED50 (Zucker fa/fa rats; Zucker fa/fa rats, oral, 1 hour before 3 hour 60% fat snack) [mg/kg] | effect on snack intake / snacking (Zucker fa/fa rats) | body weight re-gain [1] | further weight loss compared with sibutramine treated animals ([2]; Day 14-28) | body weight loss at day 14 [2] [%] | ED50 (Zucker fa/fa rats; po) [mg/kg] | lean mass (DEXA) vs. DIO controls (DIO mice) | food intake ([3]; literature studies, initially) | reduction of body weight ([3]; over a 6 month or a 1 year period) |
| --- | --- | --- | --- | --- | --- | --- | --- | --- | --- |
| Cc1c(C(=O)NN2CCCCC2)nn(-c2ccc(Cl)cc2Cl)c1-c1ccc(Cl)cc1 [rimonabant, 1-H-pyrazole-3-carboxamide, 5-(4-chlorophenyl)-1-(2,4-dichlorophenyl)-4-methyl-N-1-piperidinyl] | 8 | effective in reducing snack intake | prevent body weight re-gain | approximately 4% | 15 | – | – | – | – |
| CC(C)CC(N(C)C)C1(c2ccc(Cl)cc2)CCC1 (stereo not drawn) [sibutramine, N,N-dimethyl-1-[1-(4-chlorophenyl)cyclobutyl]-3-methylbutylamine] | – | effective in reducing snack intake | prevent body weight re-gain | – | 14 | 24 | statistical decreases in lean mass | potently inhibits food intake | about 10% |
